target: Multidrug resistance-associated protein 1 (Homo sapiens, UniProt P33527); assay: viability protection against doxorubicin, MRP-1 line – cell-based, doxorubicin EC50 shift, dose response (AID 844)
Sequence (P33527 whole entry): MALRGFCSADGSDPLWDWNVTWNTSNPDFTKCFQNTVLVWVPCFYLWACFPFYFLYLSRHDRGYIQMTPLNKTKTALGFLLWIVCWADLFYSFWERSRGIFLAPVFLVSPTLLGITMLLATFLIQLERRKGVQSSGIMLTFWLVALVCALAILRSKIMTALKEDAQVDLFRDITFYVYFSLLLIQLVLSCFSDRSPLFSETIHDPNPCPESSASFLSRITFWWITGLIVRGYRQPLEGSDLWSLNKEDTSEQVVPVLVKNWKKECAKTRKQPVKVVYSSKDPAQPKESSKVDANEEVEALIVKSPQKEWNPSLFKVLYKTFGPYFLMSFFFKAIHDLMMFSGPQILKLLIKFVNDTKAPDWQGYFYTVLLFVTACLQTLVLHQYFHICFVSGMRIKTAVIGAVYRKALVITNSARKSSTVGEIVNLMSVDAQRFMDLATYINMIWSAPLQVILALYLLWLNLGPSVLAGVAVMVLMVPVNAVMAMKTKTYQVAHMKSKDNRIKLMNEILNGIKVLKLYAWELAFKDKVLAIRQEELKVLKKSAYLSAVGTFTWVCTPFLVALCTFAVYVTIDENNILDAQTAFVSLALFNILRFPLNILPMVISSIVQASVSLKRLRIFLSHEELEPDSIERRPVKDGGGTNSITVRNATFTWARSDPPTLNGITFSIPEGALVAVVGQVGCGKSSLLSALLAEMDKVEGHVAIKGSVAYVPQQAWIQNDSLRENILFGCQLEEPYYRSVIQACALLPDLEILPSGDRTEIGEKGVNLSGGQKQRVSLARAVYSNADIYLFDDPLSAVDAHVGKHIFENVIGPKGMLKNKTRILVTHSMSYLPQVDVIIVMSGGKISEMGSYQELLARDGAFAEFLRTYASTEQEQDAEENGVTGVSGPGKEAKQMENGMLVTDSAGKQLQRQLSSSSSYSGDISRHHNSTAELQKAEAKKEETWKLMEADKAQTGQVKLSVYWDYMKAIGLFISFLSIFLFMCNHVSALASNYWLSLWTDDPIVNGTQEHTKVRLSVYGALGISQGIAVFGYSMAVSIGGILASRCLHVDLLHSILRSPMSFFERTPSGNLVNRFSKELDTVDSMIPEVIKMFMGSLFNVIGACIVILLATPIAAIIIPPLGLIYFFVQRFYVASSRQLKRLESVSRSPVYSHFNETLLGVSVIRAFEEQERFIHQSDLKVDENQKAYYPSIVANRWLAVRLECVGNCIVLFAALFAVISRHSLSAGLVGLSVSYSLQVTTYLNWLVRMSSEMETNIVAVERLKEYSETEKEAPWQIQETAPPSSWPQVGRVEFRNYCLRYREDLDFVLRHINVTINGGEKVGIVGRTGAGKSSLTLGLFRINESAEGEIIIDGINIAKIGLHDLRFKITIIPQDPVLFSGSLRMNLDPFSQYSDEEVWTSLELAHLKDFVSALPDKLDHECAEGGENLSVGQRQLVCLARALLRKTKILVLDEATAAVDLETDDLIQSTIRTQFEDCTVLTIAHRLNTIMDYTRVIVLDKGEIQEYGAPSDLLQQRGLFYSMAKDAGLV

Structure (SMILES) | EC50 [µM]
C=CCN(C(=O)Nc1ccc(Cl)cc1)c1cc(O)n(-c2ccc(OC)cc2)c1O [1-allyl-3-(4-chlorophenyl)-1-[2,5-diketo-1-(4-methoxyphenyl)pyrrolidin-3-yl]urea] | 4.85
CCOC(=O)C1C(C)=Nc2sc(C(=O)c3ccc(C)cc3)c(N)c2C1c1ccc(C(=O)OC)cc1 (stereo unspecified) [3-Amino-4-(4-methoxycarbonyl-phenyl)-6-methyl-2-(4-methyl-benzoyl)-4,7-dihydro-thieno[2,3-b]pyridine-5-carboxylic acid ethyl ester] | 1.96
Cc1ccc(C)c(C(=O)C2C(=O)C(=O)N(CCCn3ccnc3)C2c2ccncc2)c1 (stereo unspecified) [(4E)-4-[(2,5-dimethylphenyl)-hydroxy-methylene]-1-(3-imidazol-1-ylpropyl)-5-(4-pyridyl)pyrrolidine-2,3-quinone] | 6.31
O=CC(=NNc1ccccc1)C(=O)c1ccncc1 [3-keto-2-(phenylhydrazono)-3-(4-pyridyl)propionaldehyde] | 7.54
O=C(Cc1sc(=O)n(-c2ccccc2)c1O)Nc1ccccc1 [2-(2,4-diketo-3-phenyl-thiazolidin-5-yl)-N-phenyl-acetamide] | 6.42
Oc1cc(N2CCC(c3nc4ccccc4o3)CC2)c(O)n1-c1cc(Cl)cc(Cl)c1 [3-[4-(1,3-benzoxazol-2-yl)-1-piperidinyl]-1-(3,5-dichlorophenyl)-2,5-pyrrolidinedione] | 7.36
COc1ccc(NC(=O)Cc2c(O)n(-c3ccc(Cl)cc3)c(=S)n2NC(=O)c2cccc(F)c2)cc1 [MLS000590171] | 3.59
O=C1C=CC([N+](=O)[O-])=CC1/C=N/n1cnc2ccccc21 (stereo unspecified) [2-[(E)-Benzoimidazol-1-yliminomethyl]-4-nitro-phenol] | 3.61
O=C1CCCC(=O)C1=NNc1ccc2c(c1)OCO2 [2-(1,3-benzodioxol-5-ylhydrazinylidene)cyclohexane-1,3-dione] | 6.29
CCCCCCN1C(=O)C(=Cc2c[nH]nc2-c2ccccc2)SC1=S [(5Z)-3-hexyl-5-[(5-phenyl-1H-pyrazol-4-yl)methylidene]-2-sulfanylidene-1,3-thiazolidin-4-one] | 4.16
Cc1cc(N=NCc2ccccc2Cl)nc(NCc2ccccc2)n1 [2-N-benzyl-4-N-[(2-chlorophenyl)methylideneamino]-6-methylpyrimidine-2,4-diamine] | 1.08
COC(=O)C(C=Nc1ccc(O)cc1)[N+](=O)[O-] (stereo unspecified) [(Z)-3-(4-hydroxyanilino)-2-nitro-2-propenoic acid methyl ester] | 1.12
O=C(CC=NNC(=O)c1ccccc1)c1ccc(Br)cc1 [MLS000532545] | 2.86
Cc1cc(C)nc(N=NCc2cccc3ccccc23)n1 [(4,6-dimethylpyrimidin-2-yl)-(1-naphthylmethyleneamino)amine] | 5.39
COc1ccc(CN2C(=O)C(=CNc3ccc(OC)cc3)c3ccccc3C2=O)cc1 [SMR000259567] | 7.24
CCSC(C)CC1Cc2onc(CC)c2C(N=O)C1 (stereo unspecified) [3-ethyl-6-[2-(ethylthio)propyl]-6,7-dihydro-5H-1,2-benzoxazol-4-one oxime] | 6.85
O=C(CCCCl)Nc1cc(=O)n(-c2ccccc2)[nH]1 [4-Chloro-N-(5-oxo-1-phenyl-4,5-dihydro-1H-pyrazol-3-yl)-butyramide] | 8.43
Oc1cc(N2CCCN(c3cc(O)n(-c4ccc(F)cc4)c3O)CC2)c(O)n1-c1ccc(F)cc1 [1-(4-fluorophenyl)-3-[4-[1-(4-fluorophenyl)-2,5-bis(oxidanylidene)pyrrolidin-3-yl]-1,4-diazepan-1-yl]pyrrolidine-2,5-dione] | 6.34
N#CC(C#N)N=Nc1ccc(S(=O)(=O)N2CCCC2)cc1 [2-[(4-pyrrolidin-1-ylsulfonylphenyl)hydrazinylidene]propanedinitrile] | 5.88
Oc1nc(Nc2ccccc2)sc1Cc1cccc(Cl)c1Cl [2-anilino-5-(2,3-dichlorobenzyl)-2-thiazolin-4-one] | 6.54
COC(=O)C1=C(C)N=C(C)C(C(=O)OC)C1c1ccccc1OCc1c(C)n[o+]n1[O-] (stereo unspecified) | 5.32

Source: BindingDB's records for doi:10.7270/Q25719FH (Srmlsc, 2007)
